Laboratory results: ChEMBL document CHEMBL3880442, “NHE3-binding compounds and methods for inhibiting phosphate transport” (2014)
Activity calls are given as the source filed them. The calls are words filed in the database; no cut-off is given here.

Assays:
Rattus norvegicus [1] = assay: Effect on sodium level in urine in Sprague-Dawley rat at 10 mg/kg administered via oral gavage measured after 16 hrs by gravimetric analysis relative to vehicle-treated control; type: functional
Rattus norvegicus [2] = assay: Effect on phosphate level in urine in Sprague-Dawley rat at 10 mg/kg administered via oral gavage measured after 16 hrs by gravimetric analysis relative to vehicle-treated control; type: functional
Rattus norvegicus [3] = assay: Effect on sodium level in urine in Sprague-Dawley rat at 3 mg/kg administered via oral gavage measured after 16 hrs by gravimetric analysis relative to vehicle-treated control; type: functional
Rattus norvegicus [4] = assay: Effect on phosphate level in urine in Sprague-Dawley rat at 3 mg/kg administered via oral gavage measured after 16 hrs by gravimetric analysis relative to vehicle-treated control; type: functional
Rattus norvegicus [5] = assay: Inhibition of NHE3-mediated intestinal phosphate uptake in rat at 10 mg/kg, po administered with 33-labeled Pi in presence of glucose and calcium; type: functional, organism-based
Rattus norvegicus [6] = assay: Inhibition of NHE3-mediated intestinal phosphate uptake in rat at 10 mg/kg, po administered with 33-labeled Pi in presence of calcium; type: functional, organism-based
Rattus norvegicus [7] = assay: Inhibition of NHE3-mediated intestinal phosphate uptake in rat at 10 mg/kg, po administered with 33-labeled Pi; type: functional, organism-based
Rattus norvegicus [8] = assay: Effect on sodium level in urine in Sprague-Dawley rat at 1 mg/kg administered via oral gavage measured after 16 hrs by gravimetric analysis relative to vehicle-treated control; type: functional
Rattus norvegicus [9] = assay: Reduction in urinary sodium level in rat at 10 mg/kg, po administered with 33-labeled Pi; type: functional, organism-based
Rattus norvegicus [10] = assay: Effect on fecal form in rat at 10 mg/kg, po administered with 33-labeled Pi; type: functional, organism-based

Structure (SMILES)	Activity (Rattus norvegicus [1])	Activity (Rattus norvegicus [2])	Activity (Rattus norvegicus [3]) [%]	Activity (Rattus norvegicus [4]) [%]	also measured
CN(CC(=O)NCCOCCOCCOCCN1CCN(c2ccc(-c3nc(NC(=N)N)nc4ccc(Cl)cc34)cc2)CC1)CC(=O)NCCOCCOCCOCCN1CCN(c2ccc(-c3nc(NC(=N)N)nc4ccc(Cl)cc34)cc2)CC1	66%	101%			
CN1Cc2c(Cl)cc(Cl)cc2[C@H](c2ccc(S(=O)(=O)NCCOCCOCCOCCNC(=O)COCC(=O)NCCOCCOCCOc3cccc(-c4nc(NC(=N)N)nc5ccc(Cl)cc45)c3)cc2)C1	87%	150%			
CN1Cc2c(Cl)cc(Cl)cc2[C@@H](c2cccc(S(=O)(=O)NCCOCCOCCNC(=O)NCCCC(N)(CCCNC(=O)NCCOCCOCCNS(=O)(=O)c3cccc([C@@H]4CN(C)Cc5c(Cl)cc(Cl)cc54)c3)CCCNC(=O)NCCOCCOCCNS(=O)(=O)c3cccc([C@@H]4CN(C)Cc5c(Cl)cc(Cl)cc54)c3)c2)C1			56	50	
CN1Cc2c(Cl)cc(Cl)cc2[C@@H](c2cccc(S(=O)(=O)NCCOCCOCCNC(=O)NCCCCNC(=O)NCCOCCOCCNS(=O)(=O)c3cccc([C@H]4CN(C)Cc5c(Cl)cc(Cl)cc54)c3)c2)C1					inhibition (Rattus norvegicus [5]): Active; inhibition (Rattus norvegicus [6]): Active; inhibition (Rattus norvegicus [7]): Active
CN1Cc2c(Cl)cc(Cl)cc2[C@H](c2cccc(S(=O)(=O)NCCOCCOCCNC(=O)CCC(CCC(=O)NCCOCCOCCNS(=O)(=O)c3cccc([C@@H]4CN(C)Cc5c(Cl)cc(Cl)cc54)c3)(CCC(=O)NCCOCCOCCNS(=O)(=O)c3cccc([C@@H]4CN(C)Cc5c(Cl)cc(Cl)cc54)c3)NC(=O)N3CCN(CCOCCO)CC3)c2)C1			31	34	
O=C(O)CN(CCN(CC(=O)O)CC(=O)NCCOCCOCCNS(=O)(=O)c1ccc(O[C@H]2c3ccccc3C[C@@H]2N2CCCCC2)cc1)CC(=O)NCCOCCOCCNS(=O)(=O)c1ccc(O[C@H]2c3ccccc3C[C@@H]2N2CCCCC2)cc1	68 - 93%	55 - 85%			
CN1Cc2c(Cl)cc(Cl)cc2[C@H](c2cccc(S(=O)(=O)NCCOCCOCCN(C)C(=O)NCCCN(CCCNC(=O)N(C)CCOCCOCCNS(=O)(=O)c3cccc([C@@H]4CN(C)Cc5c(Cl)cc(Cl)cc54)c3)CCCNC(=O)N(C)CCOCCOCCNS(=O)(=O)c3cccc([C@@H]4CN(C)Cc5c(Cl)cc(Cl)cc54)c3)c2)C1			38	68	
O=C(NCCCCNC(=O)NCCOCCOCCOCCNS(=O)(=O)c1ccc(O[C@H]2c3ccccc3C[C@@H]2N2CCCCC2)cc1)NCCOCCOCCOCCNS(=O)(=O)c1ccc(O[C@H]2c3ccccc3C[C@@H]2N2CCCCC2)cc1	33 - 79%	43 - 52%			
CN1Cc2c(Cl)cc(Cl)cc2[C@H](c2cccc(S(=O)(=O)NCCOCCOCCNC(=O)Nc3ccc(NC(=O)NCCOCCOCCNS(=O)(=O)c4cccc([C@@H]5CN(C)Cc6c(Cl)cc(Cl)cc65)c4)cc3)c2)C1.Cl.Cl					Activity (Rattus norvegicus [8]): 22%; inhibition (Rattus norvegicus [5]): Active; Activity (Rattus norvegicus [9]): Active; inhibition (Rattus norvegicus [6]): Active; inhibition (Rattus norvegicus [7]): Active; Activity (Rattus norvegicus [10]): Active
